# Test results from article PMC9166630, “SAR Probing of KX2-391 Provided Analogues With Juxtaposed Activity Profile Against Major Oncogenic Kinases” (Frontiers in Oncology, 2022).
# What was measured:
# [1] = Stability in human liver microsomes; assay type: in vitro ADME; conditions: for half-life: human liver microsomes with NADPH, 37°C, read-out: Stability HLM t1/2; for Mic. Ctrl. Human % 60 min: human liver microsomes, no NADPH added
# Protocol: Both mouse and human liver microsomes were obtained from Merck KGaA, (Darmstadt, Germany), Cat. No. M9441 (Mouse liver microsomes) and M0317 (Human liver microsomes). Assays were conducted in triplicate in 96-deep well polypropylene plates. […] At five time points, reaction mixture aliquots were transferred to 96-shallow well stop plates on ice containing acetonitrile with 0.1 µM propafenone. […] Standard curves for test compound were generated using 5 concentrations in triplicate that were processed as above but with zero incubation time. Stop plates were centrifuged at 2000 g for 10 min and then supernatant aliquots were transferred to a Waters Aquity® UPLC 700 µL 96-well sample plate with cap mat (Waters, Milford, MA). The amount of compound remaining in the supernatant was quantified by LC/MS/MS using a Waters Xevo TQ MS (electrospray positive mode) coupled to a Waters Aquity® UPLC (BEH column, C18). Propafenone was used as the internal standard. GraphPad® Prism v 5.04 was used for nonlinear fitting of time course data to generate t1/2 values.
# CYP3A4 = target: T1, CYP3A4 (Homo sapiens, UniProt P08684); assay: Inhibition assay of human CYP450 enzymes, 3A4; assay type: in vitro ADME; conditions: for IC50: testosterone substrate; for no inhibition of CYP3A4 at concentrations up to: the values are: IC50
# T1 construct: purchased Fisher Scientific; host or cells: insect cells (supersomes)
# T1 sequence (P08684 whole entry): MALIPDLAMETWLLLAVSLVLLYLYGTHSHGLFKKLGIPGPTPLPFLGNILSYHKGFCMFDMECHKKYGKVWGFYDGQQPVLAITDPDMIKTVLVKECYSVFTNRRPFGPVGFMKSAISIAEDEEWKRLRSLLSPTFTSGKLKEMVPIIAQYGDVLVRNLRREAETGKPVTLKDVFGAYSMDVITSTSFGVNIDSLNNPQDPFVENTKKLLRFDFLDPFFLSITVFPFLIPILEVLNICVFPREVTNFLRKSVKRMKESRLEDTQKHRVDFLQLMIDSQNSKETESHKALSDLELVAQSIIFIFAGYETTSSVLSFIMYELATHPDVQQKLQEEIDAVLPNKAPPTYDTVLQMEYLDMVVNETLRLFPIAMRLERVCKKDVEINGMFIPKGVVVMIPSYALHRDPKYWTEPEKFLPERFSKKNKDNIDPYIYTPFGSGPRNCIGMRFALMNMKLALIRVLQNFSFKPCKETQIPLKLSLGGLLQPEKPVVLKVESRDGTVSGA
# Protocol: The two compounds 4e and 4n were assessed for their ability to inhibit the three major human CYP450 enzymes, 3A4, 2D6 and 2C9. Assays were run in triplicate. Expressed enzymes in insect supersomes (Fisher Scientific, Waltham, MA) were used to minimize non-specific binding and membrane partitioning issues ([68]). The 3A4 assay uses testosterone as a substrate and analysis was performed by LC/MS/MS on a Waters Xevo TQ instrument as described above using positive electrospray ionization. Assay acceptance criteria was 20% for all standards and 25% for the LLOQ. The 2D6 and 2C9 assays use fluorescent substrates (3-[2-(N,N-diethylamino)ethyl]-7-methoxy-4-methylcoumarin for 2D6; 7-methoxy-4-(trifluoromethyl)coumarin for 2C9) and were analyzed on an Envision plate reader. GraphPad® Prism v 5.04 was used for nonlinear fitting of data to generate IC50 values.
# [2] = Stability in mouse plasma; assay type: in vitro ADME; conditions: CD-1, mouse, pH 7.4, 37°C, read-out: Mouse Plasma Stability t1/2
# Protocol: The assay was conducted at 37°C in triplicate. Test compounds or procaine (positive control) were tested at a final concentration of 1 µM in either 2.5% DMSO/CD-1 mouse plasma (Innovative Research, Novi, MI; sodium heparin added as anticoagulant; pH adjusted to 7.4 with 2N HCl on day of use) or 2.5% DMSO/PBS (pH 7.4: 136.9 mM NaCl, 2.68 mM KCl, 8.1 mM Na2HPO4, 1.47 mM KH2PO4, 0.9 mM CaCl2, 0.49 mM MgCl2). At seven time points, reaction mixture aliquots were transferred to 96-shallow well stop plates on ice containing acetonitrile with 0.1 µM propafenone. Samples were analyzed by LC/MS/MS on a Waters Xevo TQ instrument as described above using positive electrospray ionization. Assay acceptance criteria was 20% for all standards and 25% for the LLOQ. GraphPad® Prism v. 5.04 was used for nonlinear fitting of data to generate t1/2 values.
# [3] = Binding to mouse plasma proteins (equilibrium dialysis); assay type: in vitro ADME; conditions: 10 µM, 37°C, 22 h dialysis
# Protocol: The equilibrium dialysis method for determining plasma protein binding was performed as previously described using 96-well dialyzer plates with molecular weight cutoff of 5K (Harvard Aparatus, Holliston, MA) and a dual-plate rotator set to maximum speed (Harvard Aparatus, Holliston, MA) located in a 37°C incubator with a 10% CO2-atmospheric environment. Assays were run in triplicate. The test compounds were added to CD-1 mouse plasma (Innovative Research, Novi, MI, sodium heparin added as anticoagulant; pH adjusted to 7.4 with 2N HCl on day of use) in DMSO (final DMSO concentration 0.4%) to give 10 µM final concentration. Drug/plasma mixture and buffer (Dulbecco’s phosphate-buffered saline 1X without calcium and magnesium, Mediatech, Inc., Herndon, VA) were placed in their respective sides, wells were capped, and the plate was placed in the rotator and allowed to dialyze for 22 h. Following dialysis, aliquots of buffer and plasma mixture were removed and mixed with aliquots of the opposite matrix in 96-well deep plates. Concentrations of analytes from each side of the dialysis plate were determined by LC/MS/MS on a Waters Xevo TQ instrument as described above using positive electrospray ionization. […] The fraction unbound was calculated by dividing the drug concentration in the buffer side of the dialysis plate by the drug concentration in the plasma side.
# JAK1~b = target: T2, JAK1~b (Homo sapiens, UniProt P23458); assay: PamChip tyrosine kinase microarray, JAK1~b; assay type: biochemical; conditions: 4e 0.1 µM, HL60 lysate
# T2 construct: The compound 4e was spiked into HL60 cell lysate at different concentrations; endogenous in cells; host or cells: HL60 cell lysate
# T2 sequence (P23458 whole entry): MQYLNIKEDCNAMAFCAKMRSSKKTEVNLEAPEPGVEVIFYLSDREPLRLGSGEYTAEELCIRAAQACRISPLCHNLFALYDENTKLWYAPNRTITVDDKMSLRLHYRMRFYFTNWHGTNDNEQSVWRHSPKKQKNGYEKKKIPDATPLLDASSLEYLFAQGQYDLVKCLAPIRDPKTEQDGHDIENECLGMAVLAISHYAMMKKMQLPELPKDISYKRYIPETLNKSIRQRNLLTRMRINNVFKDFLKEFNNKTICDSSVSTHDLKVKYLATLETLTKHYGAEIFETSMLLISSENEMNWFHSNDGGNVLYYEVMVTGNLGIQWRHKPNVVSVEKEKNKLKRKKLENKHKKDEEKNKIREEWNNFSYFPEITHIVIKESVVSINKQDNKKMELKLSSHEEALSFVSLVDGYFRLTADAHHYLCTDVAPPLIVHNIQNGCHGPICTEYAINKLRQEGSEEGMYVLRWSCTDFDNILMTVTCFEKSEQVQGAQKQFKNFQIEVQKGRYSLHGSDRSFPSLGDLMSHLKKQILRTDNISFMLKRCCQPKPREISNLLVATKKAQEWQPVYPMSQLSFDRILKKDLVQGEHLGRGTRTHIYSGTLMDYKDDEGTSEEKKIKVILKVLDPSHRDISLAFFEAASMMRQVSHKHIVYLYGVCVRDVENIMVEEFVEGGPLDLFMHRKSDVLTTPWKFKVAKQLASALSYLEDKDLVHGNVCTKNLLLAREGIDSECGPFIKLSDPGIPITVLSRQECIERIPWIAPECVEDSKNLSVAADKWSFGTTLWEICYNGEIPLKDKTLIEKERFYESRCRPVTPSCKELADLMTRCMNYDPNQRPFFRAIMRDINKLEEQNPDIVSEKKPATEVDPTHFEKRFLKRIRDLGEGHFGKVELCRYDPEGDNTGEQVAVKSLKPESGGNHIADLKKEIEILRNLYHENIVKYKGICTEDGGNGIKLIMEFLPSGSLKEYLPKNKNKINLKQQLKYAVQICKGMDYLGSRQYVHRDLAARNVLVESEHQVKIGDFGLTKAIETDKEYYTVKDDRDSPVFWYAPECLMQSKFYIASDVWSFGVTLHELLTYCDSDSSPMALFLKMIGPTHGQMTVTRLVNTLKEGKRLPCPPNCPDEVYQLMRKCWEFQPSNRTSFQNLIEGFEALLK
# Protocol: The changes in kinase activities induced by treatment with 4e were monitored within the HL60 cell lines using PamGene’s (Hertogenbosch, Netherlands) PamChip® peptide microarray profiler, which quantifies the activities of 144 tyrosine kinases (YK) ([29], [30]) (Figure 7). Results are provided as a log fold change (LFC) heatmap and Mean Kinase Statistic. From the LFC it is apparent that compound 4e, at a concentration of 0.1 µM, induced sizable changes to the activity of several kinases within the cell signaling YK profile (Figure 7A).
# An Upstream Kinase tool was used to generate a putative list of kinases responsible for phosphorylating the phospho-sites on the PamChip (Figure 7B) ([31]). It is an interpretation and is highly dependent on the contents of the underlying phosphorylation databases. A Kinase Score was used for ranking kinases based on their significance and specificity in terms of the set of peptides used for the corresponding kinase. Kinase Statistics indicates the overall change of the peptide set that represents the kinase. Kinase statistics value <0 indicates lower kinase activity in the compound spiked lysate and vice versa ([32], [33]). Table 5 lists the 20 most changed kinases within treated HL60 cell lysates by 0.1 μM 4e, ranked according to their Kinase Score.
# The compound 4e was spiked into HL60 cell lysate at different concentrations (0.001, 0.01, 0.1, 1, 10 and 50 μM). In addition, DMSO was also spiked in HL60 lysate at low concentration (2% v/v) as control. Samples were profiled on PamGene’s Tyrosine Kinase (PTK) arrays in technical replicates, covering a total of 196 phosphorylation sites. Frozen HL60 cultured cell pellet was sent to PamGene. At PamGene, cells were lysed using a lysis buffer and proteases inhibitors cocktail. Protein concentration was measured using standard Bradford assay as per PamGene SOPs. These lysates were further used for generating the PTK activity profiles. For spiking, 4e was received as powder form and dissolved in DMSO at PamGene facility followed by storing at -20°C in small aliquots. PamGene used its in-house bioinformatics toolbox in combination with other methods to generate hypotheses of signaling pathways.
SMILES,half-life [1] [h],Mic. Ctrl. Human % 60 min [1] [%],IC50 (CYP3A4) [µM],no inhibition of CYP3A4 at concentrations up to (CYP3A4) [µM],half-life at 1 µM [2] [h],Mouse PPB (% free) [3],Mean Final Score (JAK1~b),Mean Kinase Statistic (JAK1~b),Mean Significance Score (JAK1~b),Mean Specificity Score (JAK1~b)
"O=C(Cc1ccc(NC(=O)c2cccc(Cl)n2)cc1)NCc1ccccc1 [Compound 4n, N-(4-(2-(benzylamino)-2-oxoethyl)phenyl)-6-chloropicolinamide]",0.668,98,> 10,> 10,2.97,Unstable,–,–,–,–
"O=C(Cc1ccc(NC(=O)c2cccc(Cl)c2)cc1)NCc1ccccc1 [Compound 4e, N-(4-(2-(benzylamino)-2-oxoethyl)phenyl)-3-chlorobenzamide]",> 1,102,> 10,> 10,> 5,0.8 % free,1.3907,-0.5828,0.8736,0.5171
